Source: the supplement of paper PMC11451515

System: NOMO1
Assay: cell viability relative to DMSO control; higher = less cytotoxic
Conditions: 48 h
Summary of the method: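 NOMO1 or SEM (500 cells/well) or P12-Ichikawa (1000 cells/well) leukemia cells were adapted for at least four passages in each medium. They were seeded in 1536-well plates (5 μl) and pin-dosed with library compounds in DMSO over an 11-point threefold series, 47 μM to 0.79 nM. CellTiter-Glo One luminescence was read after 48 h at 37°C. Viability is the per-plate percentage relative to DMSO wells, with cell-free wells as background.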

[1] = RPMI 5 mM glucose + 10% FBS, 0.000781 µM
[2] = RPMI 5 mM glucose + 10% FBS, 0.00234 µM
[3] = RPMI 5 mM glucose + 10% FBS, 0.00702 µM
[4] = RPMI 5 mM glucose + 10% FBS, 0.0211 µM
[5] = RPMI 5 mM glucose + 10% FBS, 0.0632 µM
[6] = RPMI 5 mM glucose + 10% FBS, 0.19 µM
[7] = RPMI 5 mM glucose + 10% FBS, 0.569 µM
[8] = RPMI 5 mM glucose + 10% FBS, 1.71 µM
[9] = RPMI 5 mM glucose + 10% FBS, 5.12 µM
[10] = RPMI 5 mM glucose + 10% FBS, 15.4 µM
[11] = RPMI 5 mM glucose + 10% FBS, 46.1 µM
[12] = RPMI 5 mM glucose + 10% dialyzed FBS, 0.000781 µM
[13] = RPMI 5 mM glucose + 10% dialyzed FBS, 0.00234 µM
[14] = RPMI 5 mM glucose + 10% dialyzed FBS, 0.00702 µM
[15] = RPMI 5 mM glucose + 10% dialyzed FBS, 0.0211 µM
[16] = RPMI 5 mM glucose + 10% dialyzed FBS, 0.0632 µM
[17] = RPMI 5 mM glucose + 10% dialyzed FBS, 0.19 µM
[18] = RPMI 5 mM glucose + 10% dialyzed FBS, 0.569 µM
[19] = RPMI 5 mM glucose + 10% dialyzed FBS, 1.71 µM
[20] = RPMI 5 mM glucose + 10% dialyzed FBS, 5.12 µM
[21] = RPMI 5 mM glucose + 10% dialyzed FBS, 15.4 µM
[22] = RPMI 5 mM glucose + 10% dialyzed FBS, 46.1 µM
[23] = HPLM + 10% dialyzed FBS, 0.000781 µM
[24] = HPLM + 10% dialyzed FBS, 0.00234 µM
[25] = HPLM + 10% dialyzed FBS, 0.00702 µM
[26] = HPLM + 10% dialyzed FBS, 0.0211 µM
[27] = HPLM + 10% dialyzed FBS, 0.0632 µM
[28] = HPLM + 10% dialyzed FBS, 0.19 µM
[29] = HPLM + 10% dialyzed FBS, 0.569 µM
[30] = HPLM + 10% dialyzed FBS, 1.71 µM
[31] = HPLM + 10% dialyzed FBS, 5.12 µM
[32] = HPLM + 10% dialyzed FBS, 15.4 µM
[33] = HPLM + 10% dialyzed FBS, 46.1 µM

Row | SMILES | cell viability [1] [%] | cell viability [2] [%] | cell viability [3] [%] | cell viability [4] [%] | cell viability [5] [%] | cell viability [6] [%] | cell viability [7] [%] | cell viability [8] [%] | cell viability [9] [%] | cell viability [10] [%] | cell viability [11] [%] | cell viability [12] [%] | cell viability [13] [%] | cell viability [14] [%] | cell viability [15] [%] | cell viability [16] [%] | cell viability [17] [%] | cell viability [18] [%] | cell viability [19] [%] | cell viability [20] [%] | cell viability [21] [%] | cell viability [22] [%] | cell viability [23] [%] | cell viability [24] [%] | cell viability [25] [%] | cell viability [26] [%] | cell viability [27] [%] | cell viability [28] [%] | cell viability [29] [%] | cell viability [30] [%] | cell viability [31] [%] | cell viability [32] [%] | cell viability [33] [%]
1 | Nc1cccc2c1CN([C@H]1CCC(=O)NC1=O)C2=O | 125 | 118 | 124 | 123 | 112 | 114 | 98.3 | 105 | 99.7 | 82.1 | 112 | 101 | 111 | 120 | 104 | 114 | 108 | 107 | 109 | 103 | 88.4 | 107 | – | – | – | – | – | – | – | – | – | – | –
2 | Cc1cc(C(=O)N2CCN(c3cccc(Cl)c3)CC2)n(-c2ccccc2)n1 | 90.3 | 99.9 | 96.1 | 97.5 | 94.5 | 99.7 | 99.6 | 92.2 | 69.7 | 15.9 | 14.8 | 98 | 100 | 96.6 | 90.7 | 89.7 | 109 | 90.5 | 85.9 | 38.3 | 22 | 24.1 | 116 | 115 | 114 | 97.7 | 115 | 116 | 91.8 | 70.7 | 30.7 | 26.5 | 29.3
3 | Cn1c(=O)n(-c2ccc(C(C)(C)C#N)cc2)c2c3cc(-c4cnc5ccccc5c4)ccc3ncc21 | 103 | 114 | 104 | 102 | 106 | 99.9 | 89.8 | 52.4 | 28.7 | 19.8 | 27.1 | 102 | 120 | 111 | 112 | 94.9 | 73.4 | 66.4 | 49.3 | 33.7 | 22.6 | 30.5 | 99.4 | 99.2 | 105 | 97.5 | 91.2 | 89.2 | 61.1 | 37.4 | 41.9 | 33.9 | 32.2
4 | C[S+](=O)([O-])c1ccc(-c2cnc(N)c(C(=O)Nc3ccccc3)n2)cc1 | 110 | 110 | 112 | 110 | 111 | 133 | 113 | 116 | 110 | 87 | 98.4 | 95.6 | 93.1 | 99.7 | 104 | 106 | 113 | 117 | 112 | 110 | 75 | 69.3 | 113 | 119 | 128 | 126 | 118 | 145 | 123 | 103 | 115 | 52.1 | 56.1
5 | CCCCCCCCCC(=O)N[C@@H](Cc1c[nH]c2ccccc12)C(=O)N[C@H](CC(N)=O)C(=O)N[C@@H](CC(=O)O)C(=O)N[C@@H]1C(=O)NCC(=O)N[C@@H](CCCN)C(=O)N[C@@H](CC(=O)O)C(=O)N[C@H](C)C(=O)N[C@@H](CC(=O)O)C(=O)NCC(=O)N[C@H](CO)C(=O)N[C@@H]([C@@H](C)CC(=O)O)C(=O)N[C@@H](CC(=O)c2ccccc2N)C(=O)O[C@@H]1C | 98.9 | 112 | 102 | 122 | 111 | 104 | 121 | 124 | 108 | 117 | 111 | 103 | 116 | 103 | 111 | 125 | 106 | 141 | 131 | 102 | 118 | 80.3 | 105 | 118 | 118 | 132 | 108 | 123 | 119 | 133 | 149 | 106 | 114
6 | C[C@@H](NC(=O)c1ncnc(N)c1Cl)c1ncc(C(=O)Nc2cc(C(F)(F)F)c(Cl)cn2)s1 | 99.4 | 124 | 124 | 121 | 125 | 122 | 138 | 127 | 114 | 103 | 88.3 | – | – | – | – | – | – | – | – | – | – | – | – | – | – | – | – | – | – | – | – | – | –
7 | COc1ccc2c(c1)c(CC(=O)OCC(=O)O)c(C)n2C(=O)c1ccc(Cl)cc1 | – | – | – | – | – | – | – | – | – | – | – | 112 | 137 | 110 | 142 | 117 | 133 | 120 | 135 | 115 | 123 | 106 | 123 | 131 | 122 | 136 | 117 | 131 | 128 | 114 | 123 | 120 | 123
8 | COc1ncnc(N[S+](=O)([O-])c2ccc(N)cc2)c1OC | 97.7 | 107 | 107 | 98 | 101 | 112 | 103 | 106 | 51.3 | 24 | 13.5 | 103 | 115 | 97.2 | 110 | 117 | 119 | 123 | 108 | 70.9 | 36.7 | 19 | 111 | 111 | 104 | 122 | 102 | 123 | 97.6 | 61.4 | 31.5 | 8.89 | 7.76
